pEC50, pKi: −log10 of the molar value. Bridge positions count the residues as written; N and C are the ends. Peptide text beside a SMILES is read from it. I, II: the chains in the order shown.
Experiments:
Relaxin-3 receptor 2 [1] = molecular target: T1, Relaxin-3 receptor 2 (Homo sapiens, UniProt Q8TDU9); assay: Agonist activity at human RXFP4 transfected in CHO-K1 cells co-transfected with pCRE-beta-galactosidase reporter plasmid assessed as inhibition of forskolin-induced cAMP accumulation measured after 6 hrs by beta-galactosidase reporter gene assay; assay type: functional, cell-based
Relaxin-3 receptor 2 [2] = molecular target: T1, Relaxin-3 receptor 2; assay: Competitive binding affinity to human RXFP4 receptor transfected in CHO-K1 cells in presence of europium-labeled Eu(A)-R3/I5 by fluorometric analysis; assay type: cell-based

T1 sequence (Q8TDU9 whole entry): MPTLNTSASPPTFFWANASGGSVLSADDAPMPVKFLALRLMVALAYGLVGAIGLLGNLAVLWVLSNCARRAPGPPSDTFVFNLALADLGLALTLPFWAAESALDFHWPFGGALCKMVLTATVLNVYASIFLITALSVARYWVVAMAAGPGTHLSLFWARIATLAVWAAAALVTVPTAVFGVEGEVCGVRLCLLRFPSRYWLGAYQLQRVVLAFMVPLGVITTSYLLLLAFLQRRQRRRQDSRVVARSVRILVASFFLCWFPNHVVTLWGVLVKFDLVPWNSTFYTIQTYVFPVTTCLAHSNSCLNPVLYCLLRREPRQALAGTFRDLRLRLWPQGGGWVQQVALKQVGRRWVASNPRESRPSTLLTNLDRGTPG

Compound | pEC50 (Relaxin-3 receptor 2 [1]) | pKi (Relaxin-3 receptor 2 [2])
CC[C@H](C)[C@@H]1NC(=O)[C@H](Cc2ccc(O)cc2)NC(=O)[C@H]([C@@H](C)CC)NC(=O)[C@H](C(C)C)NC(=O)[C@H]([C@@H](C)O)NC(=O)[C@H](CCCNC(=N)N)NC(=O)[C@H]([C@@H](C)CC)NC(=O)[C@H](Cc2ccc(O)cc2)NC(=O)[C@H](CCC(=O)O)NC(=O)[C@H](CC(C)C)NC(=O)CNC(=O)[C@@H](N)CSSC[C@H](N)C(=O)N[C@@H]([C@@H](C)O)C(=O)N[C@@H](CC(=O)O)C(=O)NCC(=O)N[C@@H](C)C(=O)N[C@@H](CO)C(=O)N[C@@H](CCSC)C(=O)N[C@@H](CCCCN)C(=O)N[C@@H](CC(=O)O)C(=O)N[C@@H](CC(C)C)C(=O)N[C@@H](CO)C(=O)N[C@@H](C)C(=O)N[C@@H](CC(C)C)C(=O)N[C@H](C(=O)O)CSSC[C@@H](C(=O)N[C@@H](C)C(=O)N[C@@H](CO)C(=O)N[C@@H](CO)C(=O)N[C@@H](CCCNC(=N)N)C(=O)N[C@@H](Cc2c[nH]c3ccccc23)C(=O)O)NC1=O (I: H-CGLEYIRTVIYICASSRW-OH / II: H-CTDGASMKDLSALC-OH; disulfide I:1-II:1, I:13-II:14) | 8.08 | –
CC[C@H](C)[C@@H]1NC(=O)[C@H](Cc2ccc(O)cc2)NC(=O)[C@H]([C@@H](C)CC)NC(=O)[C@H](C(C)C)NC(=O)[C@H]([C@@H](C)O)NC(=O)[C@H](CCCNC(=N)N)NC(=O)[C@H]([C@@H](C)CC)NC(=O)[C@H](Cc2ccc(O)cc2)NC(=O)[C@H](CCC(=O)O)NC(=O)[C@H](CC(C)C)NC(=O)CNC(=O)[C@@H](NC(=O)[C@H](CC(C)C)NC(=O)[C@@H](N)CCCNC(=N)N)CSSC[C@H](N)C(=O)N[C@@H]([C@@H](C)O)C(=O)N[C@@H](CC(=O)O)C(=O)NCC(=O)N[C@@H](C)C(=O)N[C@@H](CO)C(=O)N[C@@H](CCSC)C(=O)N[C@@H](CCCCN)C(=O)N[C@@H](CC(=O)O)C(=O)N[C@@H](CC(C)C)C(=O)N[C@@H](CO)C(=O)N[C@@H](C)C(=O)N[C@@H](CC(C)C)C(=O)N[C@H](C(=O)O)CSSC[C@@H](C(=O)N[C@@H](C)C(=O)N[C@@H](CO)C(=O)N[C@@H](CO)C(=O)N[C@@H](CCCNC(=N)N)C(=O)N[C@@H](Cc2c[nH]c3ccccc23)C(=O)O)NC1=O (I: H-RLCGLEYIRTVIYICASSRW-OH / II: H-CTDGASMKDLSALC-OH; disulfide I:3-II:1, I:15-II:14) | 7.85 | 7.30
CC[C@H](C)[C@@H]1NC(=O)[C@H](Cc2ccc(O)cc2)NC(=O)[C@H]([C@@H](C)CC)NC(=O)[C@H](C(C)C)NC(=O)[C@H]([C@@H](C)O)NC(=O)[C@H](CCCNC(=N)N)NC(=O)[C@H]([C@@H](C)CC)NC(=O)[C@H](Cc2ccc(O)cc2)NC(=O)[C@H](CCC(=O)O)NC(=O)[C@H](CC(C)C)NC(=O)CNC(=O)[C@@H](NC(=O)[C@H](CC(C)C)NC(=O)[C@H](CCCNC(=N)N)NC(=O)[C@@H](NC(=O)[C@@H](N)CO)C(C)C)CSSC[C@H](N)C(=O)N[C@@H]([C@@H](C)O)C(=O)N[C@@H](CC(=O)O)C(=O)NCC(=O)N[C@@H](C)C(=O)N[C@@H](CO)C(=O)N[C@@H](CCSC)C(=O)N[C@@H](CCCCN)C(=O)N[C@@H](CC(=O)O)C(=O)N[C@@H](CC(C)C)C(=O)N[C@@H](CO)C(=O)N[C@@H](C)C(=O)N[C@@H](CC(C)C)C(=O)N[C@H](C(=O)O)CSSC[C@@H](C(=O)N[C@@H](C)C(=O)N[C@@H](CO)C(=O)N[C@@H](CO)C(=O)N[C@@H](CCCNC(=N)N)C(=O)N[C@@H](Cc2c[nH]c3ccccc23)C(=O)O)NC1=O (I: H-SVRLCGLEYIRTVIYICASSRW-OH / II: H-CTDGASMKDLSALC-OH; disulfide I:5-II:1, I:17-II:14) | 7.96 | 7.46
